From patent US20080262066A1, “Azole Derivatives as Cannabinoid CB1 Receptor Antagonists” (Green Cross Corporation, priority 2007, published 2008)

biological target: T1, rat CB-1 receptor (Rattus norvegicus, UniProt P20272); test: rat CB-1 receptor binding protocol with [3H]CP-55940 on SD rat brain tissue; settings: [3H]CP-55940 displacement, SD rat brain homogenate, 30° C., 60 min
T1 construct: The tissue obtained from the brain of SD rats was homogenized; from tissue; host or cells: SD rat brain (membrane pellet of homogenate)
T1 sequence (P20272 whole entry): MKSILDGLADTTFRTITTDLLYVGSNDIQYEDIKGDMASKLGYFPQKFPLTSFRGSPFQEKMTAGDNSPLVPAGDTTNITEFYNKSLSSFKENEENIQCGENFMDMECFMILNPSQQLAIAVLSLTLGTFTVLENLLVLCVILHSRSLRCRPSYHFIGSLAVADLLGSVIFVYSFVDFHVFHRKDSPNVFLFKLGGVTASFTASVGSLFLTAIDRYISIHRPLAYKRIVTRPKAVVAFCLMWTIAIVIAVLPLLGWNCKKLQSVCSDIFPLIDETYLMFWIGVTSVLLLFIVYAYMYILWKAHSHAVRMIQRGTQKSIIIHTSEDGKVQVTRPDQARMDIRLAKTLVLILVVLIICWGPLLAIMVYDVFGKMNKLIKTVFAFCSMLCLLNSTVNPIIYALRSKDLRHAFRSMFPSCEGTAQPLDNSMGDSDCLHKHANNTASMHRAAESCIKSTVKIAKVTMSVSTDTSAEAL

Structure (SMILES)	IC50 (binding affinity for CB1 receptor)
Cc1c(C(=O)NC(=O)NCC2CCCCC2)nn(-c2ccc(Cl)cc2Cl)c1-c1ccc(Cl)cc1 [Example 18, 5-(4-Chlorophenyl)-N-(cyclohexylmethylcarbamoyl)-1-(2,4-dichlorophenyl)-4-methyl-1H-pyrazole-3-carboxamide]	insoluble
Cc1c(C(=O)NC(=O)NC(C)(C)C)nn(-c2ccc(Cl)cc2Cl)c1-c1ccc(Cl)cc1 [Example 20, N-(tert-butylcarbamoyl)-5-(4-chlorophenyl)-1-(2,4-dichlorophenyl)-4-methyl-1H-pyrazole-3-carboxamide]	insoluble

same assay, conditions: [3H]CP-55940 displacement, SD rat brain homogenate, 30° C., 60 min; read-out: IC50 (binding affinity for CB1 receptor)

Structure (SMILES)	IC50
Cc1c(C(=O)NC(=O)C2CCC2)nn(-c2ccc(Cl)cc2Cl)c1-c1ccc(Cl)cc1 [Example 3, 5-(4-Chlorophenyl)-N-(cyclobutanecarbonyl)-1-(2,4-dichlorophenyl)-4-methyl-1H-pyrazole-3-carboxamide]	127 nM
Cc1c(C(=O)NC(=O)C2CCCCC2)nn(-c2ccc(Cl)cc2Cl)c1-c1ccc(Cl)cc1 [Example 5, 5-(4-Chlorophenyl)-N-(cyclohexanecarbonyl)-1-(2,4-dichlorophenyl)-4-methyl-1H-pyrazole-3-carboxamide]	30.4 nM
CCCCCC(=O)NC(=O)c1nn(-c2ccc(Cl)cc2Cl)c(-c2ccc(Cl)cc2)c1C [Example 8, 5-(4-Chlorophenyl)-1-(2,4-dichlorophenyl)-N-hexanoyl-4-methyl-1H-pyrazole-3-carboxamide]	33.5 nM
Cc1c(C(=O)NC(=O)C(C)C)nn(-c2ccc(Cl)cc2Cl)c1-c1ccc(Cl)cc1 [Example 9, 5-(4-Chlorophenyl)-1-(2,4-dichlorophenyl)-N-isobutyryl-4-methyl-1H-pyrazole-3-carboxamide]	161 nM
Cc1c(C(=O)NC(=O)C(C)(C)C)nn(-c2ccc(Cl)cc2Cl)c1-c1ccc(Cl)cc1 [Example 10, 5-(4-Chlorophenyl)-1-(2,4-dichlorophenyl)-4-methyl-N-pivaloyl-1H-pyrazole-3-carboxamide]	32.7 nM
CCC(C)(C)C(=O)NC(=O)c1nn(-c2ccc(Cl)cc2Cl)c(-c2ccc(Cl)cc2)c1C [Example 11, 5-(4-Chlorophenyl)-1-(2,4-dichlorophenyl)-N-(2,2-dimethylbutanoyl)-4-methyl-1H-pyrazole-3-carboxamide]	21.2 nM
CCCC(CCC)C(=O)NC(=O)c1nn(-c2ccc(Cl)cc2Cl)c(-c2ccc(Cl)cc2)c1C [Example 13, 5-(4-Chlorophenyl)-1-(2,4-dichlorophenyl)-4-methyl-N-(2-propylpentanoyl)-1H-pyrazole-3-carboxamide]	26.9 nM
CCCCC(CC)C(=O)NC(=O)c1nn(-c2ccc(Cl)cc2Cl)c(-c2ccc(Cl)cc2)c1C (centres unmarked) [Example 14, 5-(4-Chlorophenyl)-1-(2,4-dichlorophenyl)-N-(2-ethylhexanoyl)-4-methyl-1H-pyrazole-3-carboxamide]	43.1 nM
CCCCCCNC(=O)NC(=O)c1nn(-c2ccc(Cl)cc2Cl)c(-c2ccc(Cl)cc2)c1C [Example 15, 5-(4-Chlorophenyl)-1-(2,4-dichlorophenyl)-N-(hexylcarbamoyl)-4-methyl-1H-pyrazole-3-carboxamide]	138 nM
Cc1c(C(=O)NC(=O)NC2CCCCC2)nn(-c2ccc(Cl)cc2Cl)c1-c1ccc(Cl)cc1 [Example 16, 5-(4-Chlorophenyl)-N-(cyclohexylcarbamoyl)-1-(2,4-dichlorophenyl)-4-methyl-1H-pyrazole-3-carboxamide]	390 nM
Cc1c(C(=O)NC(=O)NC(C)C)nn(-c2ccc(Cl)cc2Cl)c1-c1ccc(Cl)cc1 [Example 19, 5-(4-Chlorophenyl)-1-(2,4-dichlorophenyl)-N-(isopropylcarbamoyl)-4-methyl-1H-pyrazole-3-carboxamide]	253 nM
Cc1c(C(=O)NC(=O)NCc2ccccc2)nn(-c2ccc(Cl)cc2Cl)c1-c1ccc(Cl)cc1 [Example 22, N-(Benzylcarbamoyl)-5-(4-chlorophenyl)-1-(2,4-dichlorophenyl)-4-methyl-1H-pyrazole-3-carboxamide]	146 nM
Cc1c(C(=O)NC(=O)OCc2ccccc2)nn(-c2ccc(Cl)cc2Cl)c1-c1ccc(Cl)cc1 [Example 23, Benzyl 5-(4-chlorophenyl)-1-(2,4-dichlorophenyl)-4-methyl-1H-pyrazole-3-carbonylcarbamate]	17.8 nM
CCCCOC(=O)NC(=O)c1nn(-c2ccc(Cl)cc2Cl)c(-c2ccc(Cl)cc2)c1C [Example 24, Butyl 5-(4-chlorophenyl)-1-(2,4-dichlorophenyl)-4-methyl-1H-pyrazole-3-carbonylcarbamate]	99.7 nM
Cc1c(C(=O)NC(=O)OCC(C)(C)C)nn(-c2ccc(Cl)cc2Cl)c1-c1ccc(Cl)cc1 [Example 26, Neopentyl 5-(4-chlorophenyl)-1-(2,4-dichlorophenyl)-4-methyl-1H-pyrazole-3-carbonylcarbamate]	363 nM
Cc1c(C(=O)NC(=O)C2CCCCC2)nc(-c2ccc(Cl)cc2Cl)n1-c1ccc(Cl)cc1 [Example 28, 1-(4-Chlorophenyl)-N-(cyclohexanecarbonyl)-2-(2,4-dichlorophenyl)-5-methyl-1H-imidazole-4-carboxamide]	88 nM
Cc1c(C(=O)NC(=O)C(C)(C)C)nc(-c2ccc(Cl)cc2Cl)n1-c1ccc(Cl)cc1 [Example 29, 1-(4-Chlorophenyl)-2-(2,4-dichlorophenyl)-5-methyl-N-pivaloyl-1H-imidazole-4-carboxamide]	40 nM
CCC(C)(C)C(=O)NC(=O)c1nc(-c2ccc(Cl)cc2Cl)n(-c2ccc(Cl)cc2)c1C [Example 30, 1-(4-Chlorophenyl)-2-(2,4-dichlorophenyl)-N-(2,2-dimethylbutanoyl)-5-methyl-1H-imidazole-4-carboxamide]	39.9 nM
CCCC(CCC)C(=O)NC(=O)c1nc(-c2ccc(Cl)cc2Cl)n(-c2ccc(Cl)cc2)c1C [Example 31, 1-(4-Chlorophenyl)-2-(2,4-dichlorophenyl)-5-methyl-N-(2-propylpentanoyl)-1H-imidazole-4-carboxamide]	75.4 nM
CCCCC(CC)C(=O)NC(=O)c1nc(-c2ccc(Cl)cc2Cl)n(-c2ccc(Cl)cc2)c1C (centres unmarked) [Example 32, 1-(4-Chlorophenyl)-2-(2,4-dichlorophenyl)-N-(2-ethylhexanoyl)-5-methyl-1H-imidazole-4-carboxamide]	46.6 nM
Cc1c(C(=O)NCNC(=O)C2CCC2)nn(-c2ccc(Cl)cc2Cl)c1-c1ccc(Cl)cc1 [Example 34, 5-(4-Chlorophenyl)-N-(cyclobutanecarboxamidomethyl)-1-(2,4-dichlorophenyl)-4-methyl-1H-pyrazole-3-carboxamide]	150 nM
Cc1c(C(=O)NCNC(=O)C2CCCCC2)nn(-c2ccc(Cl)cc2Cl)c1-c1ccc(Cl)cc1 [Example 35, 5-(4-Chlorophenyl)-N-(cyclohexanecarboxamidomethyl)-1-(2,4-dichlorophenyl)-4-methyl-1H-pyrazole-3-carboxamide]	49.2 nM

Next, values leading:

IC50	Structure (SMILES)
24.8 nM	CCC(CC)C(=O)NC(=O)c1nn(-c2ccc(Cl)cc2Cl)c(-c2ccc(Cl)cc2)c1C [Example 1, 5-(4-Chlorophenyl)-1-(2,4-dichlorophenyl)-N-(2-ethylbutanoyl)-4-methyl-1H-pyrazole-3-carboxamide]
124 nM	Cc1c(C(=O)NC(=O)C2CC2)nn(-c2ccc(Cl)cc2Cl)c1-c1ccc(Cl)cc1 [Example 2, 5-(4-Chlorophenyl)-N-(cyclopropanecarbonyl)-1-(2,4-dichlorophenyl)-4-methyl-1H-pyrazole-3-carboxamide]
67.2 nM	Cc1c(C(=O)NC(=O)C2CCCC2)nn(-c2ccc(Cl)cc2Cl)c1-c1ccc(Cl)cc1 [Example 4, 5-(4-Chlorophenyl)-N-(cyclopentanecarbonyl)-1-(2,4-dichlorophenyl)-4-methyl-1H-pyrazole-3-carboxamide]
383 nM	CC(=O)NC(=O)c1nn(-c2ccc(Cl)cc2Cl)c(-c2ccc(Cl)cc2)c1C [Example 6, N-Acetyl-5-(4-chlorophenyl)-1-(2,4-dichlorophenyl)-4-methyl-1H-pyrazole-3-carboxamide]
43.7 nM	CCCC(=O)NC(=O)c1nn(-c2ccc(Cl)cc2Cl)c(-c2ccc(Cl)cc2)c1C [Example 7, N-Butyryl-5-(4-chlorophenyl)-1-(2,4-dichlorophenyl)-4-methyl-1H-pyrazole-3-carboxamide]
53.4 nM	Cc1c(C(=O)NC(=O)CC(C)(C)C)nn(-c2ccc(Cl)cc2Cl)c1-c1ccc(Cl)cc1 [Example 12, 5-(4-Chlorophenyl)-1-(2,4-dichlorophenyl)-N-(3,3-dimethylbutanoyl)-4-methyl-1H-pyrazole-3-carboxamide]
750 nM	Cc1c(C(=O)NC(=O)NC2CCCCCC2)nn(-c2ccc(Cl)cc2Cl)c1-c1ccc(Cl)cc1 [Example 17, 5-(4-Chlorophenyl)-N-(cycloheptylcarbamoyl)-1-(2,4-dichlorophenyl)-4-methyl-1H-pyrazole-3-carboxamide]
82.5 nM	Cc1c(C(=O)NC(=O)OC(C)(C)C)nn(-c2ccc(Cl)cc2Cl)c1-c1ccc(Cl)cc1 [Example 25, tert-Butyl 5-(4-chlorophenyl)-1-(2,4-dichlorophenyl)-4-methyl-1H-pyrazole-3-carbonylcarbamate]
20 nM	CCC(CC)C(=O)NC(=O)c1nc(-c2ccc(Cl)cc2Cl)n(-c2ccc(Cl)cc2)c1C [Example 27, 1-(4-Chlorophenyl)-2-(2,4-dichlorophenyl)-N-(2-ethylbutanoyl)-5-methyl-1H-imidazole-4-carboxamide]
1180 nM	CCCCCCCC(=O)NCNC(=O)c1nn(-c2ccc(Cl)cc2Cl)c(-c2ccc(Cl)cc2)c1C [Example 33, 5-(4-Chlorophenyl)-1-(2,4-dichlorophenyl)-4-methyl-N-(octanamidomethyl)-1H-pyrazole-3-carboxamide]

same assay, conditions: [3H]CP-55940 displacement, SD rat brain homogenate; read-out: IC50 (binding affinity for CB1 receptor)

Structure (SMILES)	IC50
Cc1c(C(=O)NC(=O)Nc2ccccc2)nn(-c2ccc(Cl)cc2Cl)c1-c1ccc(Cl)cc1 [Example 21, 5-(4-Chlorophenyl)-1-(2,4-dichlorophenyl)-4-methyl-N-(phenylcarbamoyl)-1H-pyrazole-3-carboxamide]	> 10000 nM
